Ends that are not written are not given here.
Columns and labels:
NisP = assay: Leader peptide cleavage of pre-nisin variants by NisP (RP-HPLC); type: biochemical, Lactococcus lactis; settings: in vitro cleavage of the leader peptide from purified pre-nisin (variant) by purified secreted NisP, overnight at 8 °C, integration of leader peptide peaks
Description: Step IV concerns leader peptide cleavage and thereby activation of the purified pre-nisin variants. Here, we used the secreted variant of the natural leader peptidase NisP, by which the leader peptide is cleaved in vitro and the cleavage efficiency (%) can be calculated as recently shown. We used an RP-HPLC set-up to monitor product formation, in which the appearance of the leader peptide in the chromatograms was used to determine the concentration of activated nisin (Supplementary Fig. S3). […] The nisin core peptide eluted at a later retention time of approximately 23 min (Supplementary Fig. S3). […] However, in the case of the I1 mutants I1A, I1G, I1T, I1S, I1K, I1R, I1H, I1Q, I1E, I1N and I1D) the formation of a core peptide peak in terms of a new and separated peak in the chromatogram was not observed (Supplementary Fig. S4). Rather, the peaks with a retention time between 18–21 min contained both species, the cleaved and non-cleaved lantibiotic, and can therefore not be deconvoluted for proper determination of the amount of activated nisin. […] The concentration was calculated based on a standard calibration curve (Supplementary Fig. S5), where we precisely determined the concentration of the activated nisin or I1 mutants. We used this concentration determination instead of the colorimetric protein concentration determination as for example Bradford or the BCA-assay since the latter two assays cannot differentiate between the activated and non-activated form of the secreted variants. Since nisin is not active unless the leader is cleaved off, the determination of the area of the leader peak to calculate the amount of the activated lantibiotic directly relates to the antimicrobial activity without need to further purify the peptide after cleavage.
All I1 mutations were subjected to NisP cleavage and most of the variants were cleaved, but a strong influence of the nature of the I1 substitutions with respect to cleavage efficiency was observed (Supplementary Fig. S6). The cleavage efficiency for wild type pre-nisin A was 94.3 ± 1.7% but lower for the mutants I1M, I1L, I1A and I1V (72.3 ± 1.4%, 72.4 ± 1.3%, 81.0 ± 1.8% and 58.1± 2.8%, respectively). […] This holds especially in those cases, where the amino acid at position one was exchanged to a charged amino acid (e.g. I1K 9.2 ± 1.3%; I1E 9.5 ± 0.7%) or contained a bulky hydrophobic side chain (e.g. I1F 12.9 ± 0.8%; I1W 5.7 ± 0.2%; I1Y 22.6 ± 2.3%) (Supplementary Fig. S6). […] Even after an extensive prolongation of the incubation time, no leader peptide peak was detected in the RP-HPLC chromatogram (Supplementary Fig. S4). It is important to stress in this context that the cleavage efficiencies cannot be determined from Tricine-SDS gels (20%). Here, the leader peptide as well as the core peptide would co-migrate, which obviously will falsify the staining results.
Pre-nisin and its variants were expressed and purified as previously described[41],[49],[69]. The purity of pre-nisin and its variants was controlled by Tricine-SDS-PAGE (20%)[70]. The activation of all variants was performed by NisP cleavage overnight at 8 °C. Pre-nisin cleavage and its variants was monitored by RP-HPLC[49],[69].
Pre-nisin and the activated nisin variants were analysed by RP-HPLC (Agilent Technologies 1260 Infinity II) with a LiChrospher WP 300 RP-18 end-capped column and an acetonitrile/water solvent system. The cleavage efficiency and the concentration of active lantibiotic was calculated as described previously[49],[69].

[1] = pre-lantibiotic in contrast to nisin; cited from earlier work
Method: As an advantage any lantibiotic can be produced as a pre-lantibiotic. […] Normally, we observed yields for the pre-nisin and its variants of 3–6 mg per liter cell culture supernatant after purificatio ...

Molecule | cleavage efficiency by NisP (NisP) | pH stability [1]
wild type pre-nisin A: leader-containing, fully modified precursor of nisin A, not yet activated by NisP (MSTKDFNLDLVSVSKKDSGASPRITSISLCTPGCKTGALMGCNMKTATCHCSIHVSK; thioether (positions not given here); not fully specified (some residues, bridges); also: fully post-translationally modified, places not given here; UniProt P13068 1-57, looked up) [reference compound] | 94.3 ± 1.7% | higher pH stability
C=C(NC(=O)[C@@H](NC(=O)[C@H](Cc1c[nH]cn1)NC(=O)[C@@H](NC(=O)[C@H](CO)NC(=O)[C@@H]1CS[C@@H](C)[C@H]2NC(=O)[C@H](C)NC(=O)[C@H](NC(=O)[C@H](CCCCN)NC(=O)[C@H](CCSC)NC(=O)[C@H](CC(N)=O)NC(=O)[C@@H]3CS[C@@H](C)[C@@H](NC(=O)[C@H](CCCCN)NC(=O)[C@@H]4CS[C@@H](C)[C@@H](NC(=O)[C@@H]5CSC[C@@H](NC(=O)/C(=C/C)NC(=O)[C@@H](N)CCC(=O)O)C(=O)N[C@@H]([C@@H](C)CC)C(=O)NC(=C)C(=O)N[C@@H](CC(C)C)C(=O)N5)C(=O)N5CCC[C@H]5C(=O)NCC(=O)N4)C(=O)NCC(=O)N[C@@H](C)C(=O)N[C@@H](CC(C)C)C(=O)N[C@@H](CCSC)C(=O)NCC(=O)N3)[C@H](C)SC[C@H](NC2=O)C(=O)N[C@@H](Cc2c[nH]cn2)C(=O)N1)[C@@H](C)CC)C(C)C)C(=O)N[C@@H](CCCCN)C(=O)O [I1E] | 9.5 ± 0.7% | –

— paper PMC6353901, “Systematic characterization of position one variants within the lantibiotic nisin” (Scientific Reports, 2019)
